Experimental data taken from publication PMC12013085, “Peptides targeting RAB11A–FIP2 complex inhibit HPIV3, RSV, and IAV replication as broad-spectrum antivirals” (Cell & Bioscience, 2025).
pIC50: −log10 of the molar value. Where a SMILES comes first, the peptide text is derived from it.

Key:
[1] = system: RSV
[2] = system: EV71; format: cell-based, Enterovirus 71; conditions: HeLa cells, EV71 MOI = 0.1, escalating concentrations, 24 hpi, TCID50
[3] = system: HPIV3 VLPs in 293T cells; test: HPIV3 VLP budding and plasma membrane fraction assay, WB; format: cell-based; conditions: 293T cells, compared to Tat-treated control
Procedure: (§1) Data are presented as means ± SEM
The cell lysates were prepared as described for the Western blot (WB) analysis. The supernatant was harvested and clarified by centrifugation at 12,000×g for 5 min. Subsequently, the supernatant was pelleted through a 20% sucrose cushion at 4 °C at 35,000 rpm for 2 h. The VLP pellets obtained were resuspended in PBS and boiled with SDS-PAGE loading buffer at 100 °C for 10 min. Both the cell lysates and the supernatants were then subjected to WB analysis.
293T cells, cultured in 6-cm dishes, were transfected with the indicated plasmids for 24 h. Cell collection was performed through centrifugation at 500×g for 5 min at 4 °C. Subsequently, cytosol, organelle membrane, and plasma membrane-associated proteins were extracted sequentially using the MinuteTM plasma membrane protein isolation and cell fractionation kit (INVENT), following the manufacturer's instructions.

[4] = In vivo biodistribution of Cy5-YT-DRI, IVIS imaging; conditions: BALB/c mice, i.p. administration
Procedure: Female BALB/c mice, aged 6–8 weeks, were randomly divided into two groups. One group received an intraperitoneal injection of PBS (n = 3) for background fluorescence measurement, while the other group received 5 mg/kg Cy5-YT-DRI (n = 3). Bioluminescence readings were performed at various time points using the IVIS Lumina K Series III. Following imaging, mice were euthanized, and the indicated tissues were collected for further evaluation of fluorescence values. The average radiance is expressed as the sum of photons per second from each pixel inside the region of interest per the number of pixels (p s^−1 cm^−2 sr^−1).
Supplementary file 13578_2025_1384_MOESM7_ESM.tif: Supplementary Material 7. Fig. S7. In Vivo biodistribution of Cy5-YT-DRI. (A) Mice were treated with PBS or Cy5-YT-DRI (5mg/kg) via intraperitoneal injection. Bioluminescence readings were conducted at different time points using the IVIS Lumina K Series III for ventral (the upper row) and dorsal (the lower row) views, and the average radiance is expressed as the sum of the photons per second from each pixel inside the region of interest per the number of pixels (p s−1 cm−2 sr−1). (B-F) Representative images of the brains(B), lungs (C), livers (D), kidneys (E), and hearts (F) from the PBS-treated or Cy5-YT-DRI-treated mice. (G) Normalized bioluminescence results are expressed as means ± SEM from at least two experiments. […]

[5] = system: HPIV3HA-P vRNP; test: vRNP distribution by immunofluorescence in HPIV3HA-P-infected HeLa cells; format: cell-based; conditions: HPIV3HA-P MOI = 0.01, 5 μM peptide, 24 h
Procedure: as §1
HeLa cells were cultured on coverslips in 24-well plates overnight and subjected to transfection or/and virus infection as indicated. Following this, cells were fixed with 4% paraformaldehyde for 20 min at room temperature (RT) and permeabilized with 0.2% Triton X-100 for 20 min at RT. Subsequently, cells were blocked with 3% bovine serum albumin (BSA) in PBS for 30 min at RT. The cells were then incubated with primary antibodies diluted in 1% BSA, followed by incubation with secondary antibodies, also diluted in 1% BSA. Nuclei were counterstained with DAPI, and plasma membrane were stained with Dil. Confocal microscopy images were acquired using a Leica confocal microscope.

[6] = system: HPIV3
[7] = system: RSV; format: in vivo, nude BALB/c mice
[8] = system: WSN virus; format: in vivo, BALB/c mice
[9] = system: RAB11A–FIP2 complex; test: In vitro co-IP of mixed 293T lysates (FIP2, N protein, RAB11A)
Procedure: 293 T cells were individually transfected with plasmids encoding FIP2, the N protein, and RAB11A for 36 h, after which their lysates were mixed for in vitro co-IP analysis. […] All experiments were independently replicated at least twice with consistent results. Statistical significance (*p < 0.05) was determined by two-sided unpaired t-test. Data are presented as means ± SEM
293T cells were transfected with the indicated plasmids for 36 h, and cell lysates were prepared using lysis buffer as described in the Western blot (WB) analysis section. The supernatants were collected and incubated with anti-Flag or anti-Myc magnetic beads (MCE) following the manufacturer’s instructions for co-IP. The immunoprecipitated proteins were then analyzed via WB.

[10] = system: HeLa, A549, MK2, MDCK and HEp-2 cells; conditions: CCK-8, 24 h treatment, in the tested cell lines (HeLa, A549, MK2, MDCK, HEp-2)
[11] = In vivo drug toxicity study; conditions: male ICR mice, 5 or 10 mg/kg i.p. for consecutive 3 days
Procedure: The 6–8 weeks old male ICR male mice, were randomly assigned into three groups and each group had 5 mice. The mice were i.p. injected with 5 mg/kg YT-DRI, 10 mg/kg YT-DRI, or the same volume of PBS for consecutive 3 days. During the experiment, body weight was recorded for 15 days. At the end of the experiment, the mice were perfused, and tissue samples of heart, liver, lung, and kidney were collected for histopathological examination.
Supplementary file 13578_2025_1384_MOESM8_ESM.tif: Supplementary Material 8. Fig. S8. In vivo safety of YT-DRI. (A) Body weight changes of the 6-week-old ICR mice treated with PBS or 5 mg/kg or 10 mg/kg of YT-DRI at the indicated time points. (B) Hematoxylin and eosin staining of various tissues under an optical microscope for histopathological morphology analysis at 14 days after i.p. administration. Scale bar, 200 μm.

[12] = system: IAV; format: cell-based, influenza A virus; conditions: IAV MOI 0.01, 5 μM, 24 hpi, TCID50
[13] = system: HPIV3, RSV, and IAV; format: cell-based
[14] = system: HPIV3 clinical strain VR93; format: in vivo, nude BALB/c mice

## CC[C@@H](C)[C@@H](NC(=O)[C@@H](CC(=O)O)NC(=O)[C@@H](CC(N)=O)NC(=O)[C@@H](CC(C)C)NC(=O)[C@@H](CC(C)C)NC(=O)[C@H](NC(=O)[C@@H](CCCNC(=N)N)NC(=O)[C@H](NC(=O)[C@@H](CCSC)NC(=O)[C@@H](CCC(=O)O)NC(=O)[C@@H](CCC(=O)O)NC(=O)[C@H](NC(=O)[C@@H](CCCNC(=N)N)NC(=O)[C@@H](CCCCN)NC(=O)[C@@H](CCCCN)NC(=O)[C@@H](CCCNC(=N)N)NC(=O)[C@@H](CCCNC(=N)N)NC(=O)[C@@H](CCC(N)=O)NC(=O)[C@@H](CCCNC(=N)N)NC(=O)[C@@H](CCCNC(=N)N)NC(=O)[C@H](N)CCCNC(=N)N)[C@H](C)O)C(C)C)C(C)C)C(=O)N[C@H](Cc1ccc(O)cc1)C(=O)O [YT-DRI] (HELM PEPTIDE1{[dR].[dR].[dR].[dQ].[dR].[dR].[dK].[dK].[dR].[dT].[dE].[dE].[dM].[dV].[dR].[dV].[dL].[dL].[dN].[dD].[dI].[dY]}$$$$V2.0; N-terminus and C-terminus assumed)
[1]; 2 h
  SI (CC50/IC50), RSV, A549: > 405.41
  SI (CC50/IC50), RSV, HEp-2: > 681.82
  SI (CC50/IC50), RSV, HeLa: > 220.59
  SI (CC50/IC50), RSV, MDCK: > 326.09
[1]; RSV MOI 0.1, 5 μM, 24 hpi, TCID50
  antiviral effect on RSV infection in RAB11A-KO HeLa cells: no significant antiviral effect
[2]
  EV71 replication, treated compared to untreated cells: no significant differences
[3]
  levels of N, P, and M proteins in the PM fraction and VLPs: reduced levels
[4]
  transport across the blood–brain barrier: facilitated transport across the blood–brain barrier
[5]
  vRNP localization: formation of large aggregates of vRNP in the cytoplasm
[6]
  HPIV3 viral growth in WT HeLa cells: significant reduction in viral growth
  effect on HPIV3 in RAB11A-KO HeLa cells: moderate and statistically insignificant
[6]; 36 h
  pIC50: 6.03
  SI (CC50/IC50), HPIV3, A549: > 263.16
  SI (CC50/IC50), HPIV3, HeLa: > 159.57
  SI (CC50/IC50), HPIV3, MDCK: > 102.74
[7]; 2 mg/kg i.p. once daily Day 0 to Day 3, vs PBS, n = 5
  body weight loss, RSV-infected mice: reduced body weight loss
[7]; 2 mg/kg i.p., 4 dpi, H&E
  lung histology, RSV: diminished lung tissue damage
[7]; 2 mg/kg i.p., 4 dpi, RT-qPCR
  viral RNA copies in the lung, RSV: lower viral RNA copies
[7]; 2 mg/kg i.p., 4 dpi, TCID50
  infectious titers in the lung, RSV: decreased infectious titers
[8]; 2 mg/kg i.p. once daily Day 0 to Day 4
  body weight loss, IAV (WSN)-infected mice: reduced body weight loss
[8]; 2 mg/kg i.p. once daily Day 0 to Day 4, observed until 14 dpi, n = 5
  survival rate, lethal IAV (WSN) infection: 80%
[8]; 2 mg/kg i.p., 4 dpi, RT-qPCR, vs PBS
  viral RNA copies in the lungs, IAV (WSN): decreased viral RNA copies
[8]; 2 mg/kg i.p., 4 dpi, vs PBS
  lung histology, IAV (WSN): milder lung inflammation
[9]
  N-RAB11A interaction: undetectable
[9]; in contrast to control peptide Tat
  interaction between FIP2 and RAB11A: significantly attenuated
[10]
  CC50: > 150000 nM
[11]; body weight recorded for 15 days, 5 mice per group
  acute toxicity: body weight: no significant changes
[11]; heart, liver, lung, kidney, H&E
  acute toxicity: histopathological morphology: no significant changes
[12]
  antiviral effect on IAV infection in RAB11A-KO HeLa cells: no significant antiviral effect
[13]
  replication of HPIV3, RSV, and IAV in coinfection (viral RNA accumulation): markedly impeded the replication
[14]; 2 mg/kg i.p. once daily Day 0 to Day 2, vs PBS, n = 5
  body weight loss, HPIV3-infected mice: less weight loss
[14]; 2 mg/kg i.p., 3 dpi, H&E, vs PBS
  lung histology, HPIV3: reduced lung inflammation
[14]; 2 mg/kg i.p., 3 dpi, RT-qPCR
  viral RNA copies in the lung, HPIV3: significantly decreased
[14]; 2 mg/kg i.p., 3 dpi, TCID50
  infectious titers in the lung, HPIV3: significantly decreased
